Test results as given in paper PMC5428521, “Identification of a Novel, Small Molecule Partial Agonist for the Cyclic AMP Sensor, EPAC1” (Scientific Reports, 2017).
Read-outs that look alike come from different tables or passages of the source.

Assays:
[1] = target: T1, EPAC1-CNB (Homo sapiens, UniProt O95398); experiment: 8-NBD-cAMP competition assay with EPAC1-CNB; assay type: binding
T1 construct: EPAC1-CNB (amino acids 169–318 of EPAC1); made in house; host or cells: BL-21 Escherichia coli (pGEX-6P-1)
T1 sequence (O95398 169-318 isoform O95398-3): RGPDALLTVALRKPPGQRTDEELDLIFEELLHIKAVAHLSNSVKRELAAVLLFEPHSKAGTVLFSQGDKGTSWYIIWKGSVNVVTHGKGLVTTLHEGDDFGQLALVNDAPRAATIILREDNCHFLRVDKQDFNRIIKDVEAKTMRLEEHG
Description: Optimisation of assay conditions was performed in 96 well black assay plates (Greiner). Comparison of reference molecules, dose response curves and pilot screen were done in black, low volume 384 assay plates (Greiner). Liquids were dispensed using a Biomek Fx laboratory automation workstation with a 96-multichannel pipetting head (Beckman Coulter) for optimisation, whereas the Echo® Liquid Handler (Labcyte) and Wellmate automated dispenser (Thermo Matrix) were employed for pilot screens (see library screening).
This was done using the optimised assay conditions developed during the study. Library compounds were transferred from pre-prepared, 1000x stock Echo® 384 LDV source plates (Labcyte) into black, low volume 384 assay plates (Greiner) at 25 nl volumes, using an Echo® Liquid Handler (Labcyte), maintaining 0.1–1% DMSO throughout. EPAC1-CNB (0.8 µM) was immediately added using a Wellmate automated dispenser (Thermo Matrix). Plates were centrifuged at 800 rpm, 10 s, and then incubated for 30 minutes, RT, to promote compound-protein complex formation. […] The assay was incubated at room temperature and the fluorescence intensity at 480/535 nm (ex/em) was measured after 4–15 hours using the Envision plate reader.

[2] = target: T1, EPAC1-CNB; conditions: published Kd values shown for comparison; cited from earlier work
[3] = target: T2, EPAC2-CNB (Mus musculus, UniProt Q9EQZ6); experiment: Ligand observed NMR (1D and waterLOGSY) with EPAC2-CNB; assay type: binding; conditions: compound 50 µM, protein 2.5 µM
T2 construct: EPAC2-CNB (amino acids 304–453 of EPAC2); made in house; host or cells: BL-21 Escherichia coli (pGEX-6P-1)
T2 sequence (Q9EQZ6 304-453 isoform Q9EQZ6-3): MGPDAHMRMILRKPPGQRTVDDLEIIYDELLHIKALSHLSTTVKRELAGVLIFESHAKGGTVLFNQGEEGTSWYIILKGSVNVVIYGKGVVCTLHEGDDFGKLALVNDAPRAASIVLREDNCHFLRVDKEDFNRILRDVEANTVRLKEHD
Description: (§1) Given that I942 seems to exert selective agonist properties against EPAC1, but not EPAC2, we next sought to validate whether our isolated ligands can interact with EPAC1 and EPAC2. Ligand observed nuclear magnetic resonance (NMR) is a valuable tool for the identification and validation of small molecule ligands. We therefore used one dimensional proton (1D) and water-ligand observed by gradient spectroscopy (waterLOGSY) NMR to confirm the ability of I942 and I178 to bind to the purified CNBs of EPAC1 and EPAC2, in comparison with the commercially available EPAC1 antagonist, ESI-09[32]. In order to assess ligand/CNB interaction, 1D and waterLOGSY experiments were performed on each compound (50 µM) in the presence or absence of 2.5 µM EPAC-CNB. In the absence of protein, each test compound produced a well-resolved 1D spectrum and a region of each spectrum was chosen to display distinctive spectral peaks originating from the ligand (Fig. 6). In the absence of protein, the corresponding waterLOGSY peaks were small, or absent, due to the negligible signal produced by saturation transfer from water to the freely tumbling small molecule. […] In waterLOGSY spectra, protein-mediated saturation transfer can only occur if the protein-ligand complex has a substantial lifetime. […]
(§2) (A) One dimensional proton (1D) and waterLOGSY (WL) spectra were performed on samples containing hit compound I942 (50 µM) in the absence and presence of EPAC1-CNB, EPAC2-CNB or GST alone, as indicated (2.5 µM). […] Interaction between compound and protein was assessed through comparison of the compound alone and protein-compound sample spectra. […]
(§3) All NMR spectra were recorded on a Bruker AVANCE IIIHD 600 spectrometer equipped with a TCI cryoprobe at 285 K. Test compounds were prepared in deuterated DMSO and diluted to given experimental concentrations in NMR buffer (20 mM Na2PO4, pH 7.0, 50 mM NaCl, 0.1% (w/v) NaN3, 5% (v/v) D2O) with a final DMSO concentration below 0.1%. […] One dimensional proton (1D) and waterLOGSY spectra were recorded for all compounds tested, using pulse sequences as previously described. […]

[4] = target: T1, EPAC1-CNB; experiment: Ligand observed NMR (1D and waterLOGSY) with EPAC1-CNB; assay type: binding; conditions: compound 50 µM, protein 2.5 µM
Description: as §1, §2, §3

[5] = target: GST (Schistosoma japonicum, UniProt P08515); experiment: Ligand observed NMR (1D and waterLOGSY) with GST alone; assay type: binding; conditions: compound 50 µM, GST 2.5 µM
Description: as §1, §2, §3

[6] = system: protein kinase A (PKA); experiment: PKA kinase activity assay in HEK293T cell extracts; assay type: biochemical; conditions: 1 mM cAMP, compound 0.1 to 100 µM
Description: PKA activity was measured directly in cell extracts using the PKA Kinase Activity Assay Kit (Abcam) following the manufacturer's instructions. […] Cells were washed in ice-cold PBS containing phosphatase inhibitors, scrapped into Eppendorf tubes and centrifuged at 200 × g at 4 °C for 5 minutes. Supernatants were discarded and the cell pellet was re-suspended in Complete Lysis Buffer containing 1 mM DTT, 1 mM PMSF and protease inhibitor cocktail (Roche) and then incubated for 10 minutes on ice (on the rocking platform) followed by vortex and centrifugation at […] at 4 °C for 20 minutes. Cell extracts were then transferred to fresh Eppendorf tubes, assayed for protein content and then stored at -80 °C. […] Next, 10 μl of ATP was added to each well and incubated at 30 °C for 90 min, with gentle shaking. The reaction was stopped by aspirating the contents of each well and then 40 μl of PKA phosphospecific substrate antibody was added to each well and then the plate was covered with plastic wrap and incubated at room temperature for 60 min (with gentle shaking every 20 min). […] Fluorescence was then measured at 480/530 nm. […] PKA activity was then measured in the cell extracts using an ELISA assay according to the manufactures instructions. […]

[7] = target: T3, EPAC1 (amino acids 149–881) (Homo sapiens, UniProt O95398); experiment: In vitro GEF activity assay (MANT-GDP dissociation from Rap1), EPAC1; assay type: biochemical; conditions: 500 μM compound, 500 μM cAMP
T3 construct: recombinant EPAC1 (amino acids 149–881); made in house; host or cells: bacteria
T3 sequence (O95398 149-881 isoform O95398-3): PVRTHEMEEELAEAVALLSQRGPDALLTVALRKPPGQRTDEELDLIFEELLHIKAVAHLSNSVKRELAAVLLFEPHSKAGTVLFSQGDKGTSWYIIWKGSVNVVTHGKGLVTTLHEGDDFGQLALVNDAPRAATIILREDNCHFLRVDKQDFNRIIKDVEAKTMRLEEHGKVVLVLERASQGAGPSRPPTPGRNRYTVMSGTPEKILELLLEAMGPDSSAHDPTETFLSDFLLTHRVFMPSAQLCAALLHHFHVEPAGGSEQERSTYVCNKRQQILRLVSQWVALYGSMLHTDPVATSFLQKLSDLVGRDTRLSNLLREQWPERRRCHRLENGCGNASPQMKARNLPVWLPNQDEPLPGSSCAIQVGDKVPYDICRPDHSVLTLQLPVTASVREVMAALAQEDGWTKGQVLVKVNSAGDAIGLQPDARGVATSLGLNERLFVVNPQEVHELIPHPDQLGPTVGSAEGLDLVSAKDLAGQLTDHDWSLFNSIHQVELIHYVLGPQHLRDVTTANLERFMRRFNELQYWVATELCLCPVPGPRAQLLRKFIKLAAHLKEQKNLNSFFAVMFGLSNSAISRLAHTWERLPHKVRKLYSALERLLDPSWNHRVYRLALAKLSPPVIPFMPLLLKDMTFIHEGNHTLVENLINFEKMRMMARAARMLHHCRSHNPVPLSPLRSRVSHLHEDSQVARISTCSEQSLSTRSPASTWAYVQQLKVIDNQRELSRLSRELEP
Description: For this, we used the well-characterised EPAC GEF activity assay. The assay is based on the EPAC-stimulated dissociation of fluorescent MANT-GDP from recombinant Rap1 in the presence of excess non-fluorescent nucleotide.
The data are fitted as single exponential decay with off-set (red lines) to obtain the rate constants kobs, as shown in (b).
EPAC1 and EPAC2 in vitro GEF activities were calculated as previously described. Briefly, recombinant EPAC1 (amino acids 149–881) or EPAC2 (amino acids 280–993) were incubated at 100 nM with recombinant Rap1 (200 nM) preloaded with the fluorescent GDP analogue 2′/3′-O-(N-Methylanthraniloyl)guanosine 5-diphosphate (MANT-GDP) in the presence of 20 μM GDP and then the fluorescence intensity was measured at 360/450 nm (ex/em) over time. […] AC50 or IC50 values were determined from the plots of kobs against the concentration of the agonist and antagonist, respectively Table 1.

[8] = 8-NBD-cAMP 62.5 nM, EPAC1-CNB 0.8 µM, known competitor compounds, read-out: IC50, inhibition of 8-NBD-cAMP fluorescence
[9] = 7-point dose response, 75 µM top concentration, 0.75% DMSO, read-out: IC50, 8-NBD-cAMP binding assay

Chain of GST (P08515 whole entry): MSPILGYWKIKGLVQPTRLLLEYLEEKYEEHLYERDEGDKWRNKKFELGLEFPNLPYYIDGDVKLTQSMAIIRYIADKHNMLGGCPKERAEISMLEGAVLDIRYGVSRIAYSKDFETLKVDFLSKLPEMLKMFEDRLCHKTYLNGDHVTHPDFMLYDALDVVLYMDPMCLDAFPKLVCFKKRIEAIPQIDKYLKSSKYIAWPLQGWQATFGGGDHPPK

Compound	IC50 [1, 8]	Kd [2]	IC50 [1, 9]	other results
Nc1ncnc2c1nc(Sc1ccc(Cl)cc1)n2[C@@H]1O[C@@H]2COP(=O)(O)O[C@H]2[C@H]1O [8-CPT, 8-CPT-cAMP, reference compound]	530 nM	40 nM	–	–
CC(C)(C)c1cc(C(=O)C(C#N)=NNc2cccc(Cl)c2)no1 [ESI-09, 3-(5-tert-butyl-isoxazol-3-yl)-2-[(3-chloro-phenyl)-hydrazonol]-3-oxo-propionitrile, reference compound]	–	–	–	NMR interaction [3]: attenuated; NMR interaction [4]: attenuated; NMR interaction with GST alone [5]: may interact non-specifically with GST
O=S(=O)(NCCNC/C=C/c1ccc(Br)cc1)c1cccc2cnccc12 [H-89, reference compound]	–	–	–	effect on PKA activity induced by cAMP [6]: dose-dependent inhibition
CC(=O)Nc1cccc(OCC(=O)NS(=O)(=O)c2ccc(C)cc2)c1 [I516, 2-[3-(acetylamino)phenoxy]-N-[(4-methylphenyl)sulfonyl]acetamide]	–	–	> 75000 nM	inhibition of cAMP-induced EPAC1 activity [7]: no detectable inhibitory effect
CO[C@@H]1[C@@H]2OP(=O)(O)OC[C@H]2O[C@H]1n1c(Sc2ccc(Cl)cc2)nc2c(N)ncnc21 [compound 007, 8-pCPT-2′-O-Me-cAMP, reference compound]	1670 nM	630 nM	–	–
N-[(4-chlorophenyl)sulfonyl]-2-(1-naphthyloxy)acetamide [I288]	–	–	~70000 nM	–
